Test results as given in patent publication US20190071416A1, “COMPOUNDS FOR TREATMENT OF CANCER AND EPIGENETICS” (Agency For Science, Technology and Research, priority 2015, published 2019).

Biological target: T1, SMYD3 (Homo sapiens, UniProt Q9H7B4)
T1 sequence (Q9H7B4 1-428): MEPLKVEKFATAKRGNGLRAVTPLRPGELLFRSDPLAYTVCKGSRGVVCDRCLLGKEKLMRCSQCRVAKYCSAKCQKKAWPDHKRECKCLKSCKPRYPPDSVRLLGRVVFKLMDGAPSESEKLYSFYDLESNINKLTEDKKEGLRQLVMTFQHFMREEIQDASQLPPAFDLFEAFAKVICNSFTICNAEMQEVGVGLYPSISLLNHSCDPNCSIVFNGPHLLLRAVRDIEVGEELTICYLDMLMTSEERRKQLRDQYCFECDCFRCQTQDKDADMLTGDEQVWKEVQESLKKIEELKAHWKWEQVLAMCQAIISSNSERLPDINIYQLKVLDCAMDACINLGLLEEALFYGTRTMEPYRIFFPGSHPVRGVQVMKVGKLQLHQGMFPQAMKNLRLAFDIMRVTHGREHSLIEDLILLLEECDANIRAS
Assay: Target engagement assay, SMYD3 levels by Western blot in HEK293 cells transfected with Myc-SMYD3
Format: cell-based
Set-up: host or cells: HEK293 (ATCC)
Conditions: 25 μM, overnight, HEK293 transiently transfected with Myc-tagged SMYD3
Protocol: The target engagement assay was performed with HEK293 that is engineered to overexpress SMYD3 (HEK293-SMYD3). The plasmid SMYD3 (Myc-DDK-tagged-Human SET and MYND domain containing 3) was purchased from Origene (RC230064) and transfected with lipofectamine 2000 (Invitrogen) into HEK293 (ATCC). The cell line is cultured in Eagle's MEM media supplemented with fetal bovine serum and geneticin (Invitrogen). Presence of over-expressed SMYD3 is confirmed with western blot with antibody against SMYD3 and the MYC tag as well as with RT-PCR with SMYD3 primers.
The cells were seeded in 6 well plates. After seeding for 24 h, the cells were treated with either DMSO or 25 μM compound and incubated for 24 hr. The cells were trypsinized and the lysate was extracted with RIPA buffer (Santa Cruz). The total protein concentration of lysate is quantified using the standard Bradford assay (Biorad protein assay, microplate standard assay).
Western blot analysis was performed using antibody against SMYD3 in HEK293 cells over-expressing SMYD3 (HEK293-SMYD3) treated with compound at different time points. 15.0 μg of cell lysate was diluted in 2× Laemmli sample buffer (Bio-Rad) and boiled at 100° C. on heat block for 5 min. Lysates were separated using NuPAGE® 4-12% Bis-Tris precast polyacrylamide gels (Lifetech) at 200 V, […] for 40 min. […]

**Q.** With `CCCOC(=O)N1CCN(C(=O)c2ccc3c(Cl)cc(-c4ccccc4)nc3c2)C[C@H]1C` [B019, Propyl (R)-4-(4-chloro-2-phenylquinoline-7-carbonyl)-2-methylpiperazine-1-carboxylate] as the molecule, how does the “reduction in SMYD3 levels” value read?
**A.** The value was 35-37%.
